Molecular target: T1, PI3Kα H1047R (T47D cells) (Homo sapiens, UniProt P42336, H1047R)
T1 construct: endogenous in cells; host or cells: T47D cells
Test: PI3Kα cellular assay: pAKT HTRF in T47D cells after EGF stimulation
Format: cell-based
Details: for IC50: T47D cells (PI3Kα H1047R), pAKT S473 HTRF, 1 hr compound, 20 ng/ml EGF 10 min
Outline: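 pAKT read by HTRF in lysates of EGF-stimulated (20 ng/mL, 10 min) T47D H1047R cells. Before stimulation, serum-starved cells (16 h) received compound for 1 h at 37 °C, dosed from 10,000 nM down to 0.5 nM in 3-fold steps.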

T1 sequence (P42336 whole entry H1047R): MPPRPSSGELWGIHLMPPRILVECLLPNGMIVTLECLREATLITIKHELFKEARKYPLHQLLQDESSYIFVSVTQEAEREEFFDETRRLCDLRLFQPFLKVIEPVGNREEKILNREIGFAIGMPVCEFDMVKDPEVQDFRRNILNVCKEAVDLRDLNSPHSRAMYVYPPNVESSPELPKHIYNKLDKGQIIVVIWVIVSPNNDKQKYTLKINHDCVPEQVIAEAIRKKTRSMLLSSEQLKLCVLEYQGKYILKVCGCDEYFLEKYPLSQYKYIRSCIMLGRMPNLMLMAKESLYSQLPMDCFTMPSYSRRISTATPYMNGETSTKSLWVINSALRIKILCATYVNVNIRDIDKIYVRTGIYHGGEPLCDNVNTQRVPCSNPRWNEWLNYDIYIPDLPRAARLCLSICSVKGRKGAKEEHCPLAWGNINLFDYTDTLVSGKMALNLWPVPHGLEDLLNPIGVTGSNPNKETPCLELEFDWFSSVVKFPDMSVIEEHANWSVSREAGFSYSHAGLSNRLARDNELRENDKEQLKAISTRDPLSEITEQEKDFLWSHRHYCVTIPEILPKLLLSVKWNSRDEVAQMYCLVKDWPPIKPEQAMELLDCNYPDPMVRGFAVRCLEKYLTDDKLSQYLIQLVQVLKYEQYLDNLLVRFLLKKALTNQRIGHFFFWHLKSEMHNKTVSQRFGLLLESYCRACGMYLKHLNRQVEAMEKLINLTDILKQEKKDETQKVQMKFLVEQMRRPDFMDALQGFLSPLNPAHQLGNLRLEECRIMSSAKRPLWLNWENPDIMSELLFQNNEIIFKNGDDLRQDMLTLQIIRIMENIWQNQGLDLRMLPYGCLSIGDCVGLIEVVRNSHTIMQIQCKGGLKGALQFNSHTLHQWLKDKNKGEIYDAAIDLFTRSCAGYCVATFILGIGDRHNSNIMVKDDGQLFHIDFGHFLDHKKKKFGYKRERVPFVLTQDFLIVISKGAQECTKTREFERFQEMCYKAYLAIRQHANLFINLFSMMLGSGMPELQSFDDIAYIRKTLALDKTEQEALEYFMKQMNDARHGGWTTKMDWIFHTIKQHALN
T1 sequence (P27986 whole entry partner): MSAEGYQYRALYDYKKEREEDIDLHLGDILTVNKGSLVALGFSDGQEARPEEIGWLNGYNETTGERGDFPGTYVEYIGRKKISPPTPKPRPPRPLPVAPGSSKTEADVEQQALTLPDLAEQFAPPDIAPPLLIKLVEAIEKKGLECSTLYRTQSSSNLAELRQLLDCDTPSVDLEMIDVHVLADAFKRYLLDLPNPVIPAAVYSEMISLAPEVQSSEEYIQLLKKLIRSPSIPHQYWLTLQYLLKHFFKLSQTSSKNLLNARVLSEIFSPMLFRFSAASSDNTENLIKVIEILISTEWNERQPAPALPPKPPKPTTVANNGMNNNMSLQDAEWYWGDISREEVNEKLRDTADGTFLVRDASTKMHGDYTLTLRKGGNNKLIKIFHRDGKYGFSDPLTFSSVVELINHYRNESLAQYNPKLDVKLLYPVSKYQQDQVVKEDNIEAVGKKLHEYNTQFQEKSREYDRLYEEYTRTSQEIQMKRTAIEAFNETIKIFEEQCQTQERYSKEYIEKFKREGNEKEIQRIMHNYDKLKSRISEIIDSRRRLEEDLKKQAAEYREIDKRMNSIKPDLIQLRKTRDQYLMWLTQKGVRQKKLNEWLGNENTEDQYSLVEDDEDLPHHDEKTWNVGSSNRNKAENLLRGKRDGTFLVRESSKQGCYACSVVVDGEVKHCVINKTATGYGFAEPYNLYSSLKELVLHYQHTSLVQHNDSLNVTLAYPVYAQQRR

SMILES | IC50 [nM] | T47D pAKT S473 HTRF IC50 (H1047R): T47D (H1047R) selectivity over SKBR3 (WT)
Cc1cc(C(C)Nc2c(F)cccc2C(=O)O)c2nc(N3CCOCC3)cc(=O)n2c1 (stereo not shown) [Compound 290] | > 2000 | C (C denotes ≤5-fold)
CC[C@@H](Nc1ccccc1C(=O)O)c1cc(C)cn2c(=O)cc(N3CCOCC3)nc12 [Compound 293] | > 2000 | C (C denotes ≤5-fold)
CC[C@H](Nc1ccccc1C(=O)O)c1cc(C)cn2c(=O)cc(N3CCOCC3)nc12 [Compound 294] | 500 to 2000 | C (C denotes ≤5-fold)
Cc1cc(C(C)Nc2ccccc2C(=O)O)c2nc(N3CCOC[C@H]3C)cc(=O)n2c1 (stereo partly shown) [Compound 295] | 500 to 2000 | B (B denotes 20-fold≥value>5-fold)
Cc1cc([C@@H](C)Nc2ccccc2C(=O)O)c2nc(N3CCOC[C@H]3C)cc(=O)n2c1 [Compound 296] | > 2000 | C (C denotes ≤5-fold)
Cc1cc([C@H](C)Nc2ccccc2C(=O)O)c2nc(N3CCOC[C@H]3C)cc(=O)n2c1 [Compound 297] | 100 to 500 | A (A denotes >20-fold)
CONC(=O)c1ccc(-c2cc(=O)n3cc(C)cc(C(C)NC4=CC=CCC4C(=O)O)c3n2)c(OC)c1 (stereo not shown) [Compound 299] | > 2000 | C (C denotes ≤5-fold)
Cc1cc(C(C)NC2=CC=CCC2C(=O)O)c2nc(Cc3cccc(C4=CCCC=C4)c3)c(C)c(=O)n2c1 (stereo not shown) [Compound 300] | > 2000 | C (C denotes ≤5-fold)
Cc1cc(C(C)Nc2ccccc2C(=O)O)c2nc(-c3ccc(S(N)(=O)=O)cc3)cc(=O)n2c1 (stereo not shown) [Compound 302] | 500 to 2000 | B (B denotes 20-fold≥value>5-fold)
Cc1cc(C(C)Nc2ccccc2C(=O)O)c2nc(-c3cccc(-c4nn[nH]n4)c3)cc(=O)n2c1 (stereo not shown) [Compound 303] | > 2000 | C (C denotes ≤5-fold)
Cc1cc(C(C)Nc2ccccc2C(=O)O)c2nc(-c3ccc4[nH]nc(-c5ccccn5)c4c3)cc(=O)n2c1 (stereo not shown) [Compound 304] | > 2000 | C (C denotes ≤5-fold)
Cc1cc([C@@H](C)Nc2ccccc2C(=O)O)c2nc(-c3ccc(CC4CCN(C)CC4)cc3)c(C)c(=O)n2c1 [Compound 307] | 500 to 2000 | B (B denotes 20-fold≥value>5-fold)
Cc1cc(C(C)Nc2ccccc2C(=O)O)c2nc(-c3ccc(CN4CCN(C)CC4)cc3)cc(=O)n2c1 (stereo not shown) [Compound 308] | > 2000 | C (C denotes ≤5-fold)
Cc1cc([C@@H](C)N(C)c2ccccc2C(=O)O)c2nc(N3CCOCC3)cc(=O)n2c1 [Compound 309] | > 2000 | C (C denotes ≤5-fold)
Cc1cc([C@H](C)N(C)c2ccccc2C(=O)O)c2nc(N3CCOCC3)cc(=O)n2c1 [Compound 310] | > 2000 | C (C denotes ≤5-fold)
COCCNc1cc(=O)n2cc(C)cc(C(C)Nc3ccccc3C(=O)O)c2n1 (stereo not shown) [Compound 313] | > 2000 | C (C denotes ≤5-fold)
Cc1cc(C(C)Nc2ccccc2C(=O)O)c2nc(N3C[C@@H](C)O[C@@H](C)C3)cc(=O)n2c1 (stereo partly shown) [Compound 315] | 500 to 2000 | B (B denotes 20-fold≥value>5-fold)
Cc1cc([C@@H](C)Nc2ccccc2C(=O)O)c2nc(C3CCOCC3)cc(=O)n2c1 [Compound 316] | > 2000 | C (C denotes ≤5-fold)
Cc1cc([C@H](C)Nc2ccccc2C(=O)O)c2nc(C3CCOCC3)cc(=O)n2c1 [Compound 317] | 100 to 500 | A (A denotes >20-fold)
Cc1cc(C(C)Nc2ccccc2C(=O)O)c2nc(-c3ccc4[nH]nc(-c5ccccn5)c4c3)cc(=O)n2c1 (stereo not shown) [Compound 318] | > 2000 | C (C denotes ≤5-fold)
Cc1cc([C@@H](C)Nc2ccccc2C(=O)O)c2nc(N3C[C@@H](C)O[C@@H](C)C3)cc(=O)n2c1 [Compound 319] | 100 to 500 | A (A denotes >20-fold)

SMILES | IC50 [nM] | T47D pAKT S473 HTRF IC50 (H1047R): T47D (H1047R) selectivity over SKBR3 (WT)
Cc1cc([C@H](C)Nc2ccccc2C(=O)O)c2nc(N3C[C@@H](C)O[C@@H](C)C3)cc(=O)n2c1 [Compound 320] | > 2000 | C (C denotes ≤5-fold)
Cc1cc(C(C)Nc2ccccc2C#N)c2nc(N3CCOCC3)cc(=O)n2c1 (stereo not shown) [Compound 321] | > 2000 | C (C denotes ≤5-fold)
COc1ccc(C(=O)O)c(NC(C)c2cc(C)cn3c(=O)cc(N4CCOCC4)nc23)c1 (stereo not shown) [Compound 323] | > 2000 | C (C denotes ≤5-fold)
COc1cc(NC(C)c2cc(C)cn3c(=O)cc(N4CCOCC4)nc23)c(C(=O)O)cc1OC (stereo not shown) [Compound 325] | > 2000 | C (C denotes ≤5-fold)
Cc1cc(C(C)Nc2cc(C#N)ccc2C(=O)O)c2nc(N3CCOCC3)cc(=O)n2c1 (stereo not shown) [Compound 326] | > 2000 | C (C denotes ≤5-fold)
Cc1cc(C(C)Nc2cc(C(F)(F)F)ccc2C(=O)O)c2nc(N3CCOCC3)c(C)c(=O)n2c1 (stereo not shown) [Compound 328] | > 2000 | C (C denotes ≤5-fold)
Cc1cc(C(C)Nc2ccc(C#N)cc2C(=O)O)c2nc(N3CCOCC3)cc(=O)n2c1 (stereo not shown) [Compound 329] | > 2000 | C (C denotes ≤5-fold)
Cc1cc([C@@H](C)Nc2cccc(C)c2C(=O)O)c2nc(C3CCOCC3)cc(=O)n2c1 [Compound 330] | > 2000 | C (C denotes ≤5-fold)
Cc1cc([C@H](C)Nc2cccc(F)c2C(=O)O)c2nc(N3CCOCC3)cc(=O)n2c1 [Compound 331] | > 2000 | C (C denotes ≤5-fold)
Cc1cc([C@@H](C)Oc2ccc(F)cc2C(=O)O)c2nc(N3CCOCC3)cc(=O)n2c1 [Compound 332] | > 2000 | C (C denotes ≤5-fold)
Cc1cc([C@@H](C)Nc2c(F)cccc2C(=O)O)c2nc(N3CCOCC3)cc(=O)n2c1 [Compound 333] | > 2000 | C (C denotes ≤5-fold)
Cc1cc([C@H](C)Nc2c(F)cccc2C(=O)O)c2nc(N3CCOCC3)cc(=O)n2c1 [Compound 334] | > 2000 | C (C denotes ≤5-fold)
Cc1cc([C@@H](C)Nc2c(C)cccc2C(=O)O)c2nc(N3CCOCC3)cc(=O)n2c1 [Compound 335] | > 2000 | C (C denotes ≤5-fold)
Cc1cc([C@H](C)Nc2ccccc2C#N)c2nc(N3CCOCC3)cc(=O)n2c1 [Compound 338] | > 2000 | C (C denotes ≤5-fold)
Cc1cc(C(C)Nc2ccccc2C(=O)O)c2nc(C3CCC(C)CC3)cc(=O)n2c1 (stereo not shown) [Compound 339] | – | C (C denotes ≤5-fold)
Cc1cc([C@@H](C)Nc2ccccc2-n2nn[nH]c2=O)c2nc(N3CCOCC3)cc(=O)n2c1 [Compound 343] | > 2000 | C (C denotes ≤5-fold)
Cc1cc([C@H](C)Nc2ccccc2-n2nn[nH]c2=O)c2nc(N3CCOCC3)cc(=O)n2c1 [Compound 344] | > 2000 | C (C denotes ≤5-fold)
Cc1cc(C(C)Nc2ccccc2S(N)(=O)=O)c2nc(-c3ccncc3)cc(=O)n2c1 (stereo not shown) [Compound 346] | 500 to 2000 | A (A denotes >20-fold)
Cc1cc(C(C)Nc2ccccc2C(=O)O)c2nc(-c3ccc4c(c3)c(N)nn4C)cc(=O)n2c1 (stereo not shown) [Compound 347] | 100 to 500 | A (A denotes >20-fold)
Cc1cc(C(C)Nc2ccccc2C(=O)O)c2nc(-c3ccc4[nH]nc(C)c4c3)cc(=O)n2c1 (stereo not shown) [Compound 348] | – | A (A denotes >20-fold)
Cc1cc(C(C)Nc2ccccc2C(=O)O)c2nc(-c3cnc4[nH]nc(-c5ccccc5)c4c3)cc(=O)n2c1 (stereo not shown) [Compound 351] | > 2000 | C (C denotes ≤5-fold)

— patent publication US20260132129A1 (Genesis Therapeutics, Inc., priority 2022, published 2026)
